Results reported in article PMC3510438, “The transmembrane tyrosines Y56, Y91 and Y167 play important roles in determining the affinity and transport rate of the rabbit proton-coupled peptide transporter PepT1” (The International Journal of Biochemistry & Cell Biology, 2009).
Where a chain is given by its changes, count along the chain named. Where a SMILES comes first, the peptide text is derived from it.

Assays:
[1] = target: T1, Y345F-rPepT1 (Oryctolagus cuniculus, UniProt P36836, Y345F); assay: Competition of [3H]-D-Phe-L-Gln uptake into Xenopus oocytes, Ki; type: cell-based, rabbit; settings: against 0.4 μM [3H]-D-Phe-L-Gln uptake
T1 construct: expressed in transfected cells; host or cells: Xenopus laevis oocytes injected with cRNA
T1 sequence (P36836 1-707 Y345F): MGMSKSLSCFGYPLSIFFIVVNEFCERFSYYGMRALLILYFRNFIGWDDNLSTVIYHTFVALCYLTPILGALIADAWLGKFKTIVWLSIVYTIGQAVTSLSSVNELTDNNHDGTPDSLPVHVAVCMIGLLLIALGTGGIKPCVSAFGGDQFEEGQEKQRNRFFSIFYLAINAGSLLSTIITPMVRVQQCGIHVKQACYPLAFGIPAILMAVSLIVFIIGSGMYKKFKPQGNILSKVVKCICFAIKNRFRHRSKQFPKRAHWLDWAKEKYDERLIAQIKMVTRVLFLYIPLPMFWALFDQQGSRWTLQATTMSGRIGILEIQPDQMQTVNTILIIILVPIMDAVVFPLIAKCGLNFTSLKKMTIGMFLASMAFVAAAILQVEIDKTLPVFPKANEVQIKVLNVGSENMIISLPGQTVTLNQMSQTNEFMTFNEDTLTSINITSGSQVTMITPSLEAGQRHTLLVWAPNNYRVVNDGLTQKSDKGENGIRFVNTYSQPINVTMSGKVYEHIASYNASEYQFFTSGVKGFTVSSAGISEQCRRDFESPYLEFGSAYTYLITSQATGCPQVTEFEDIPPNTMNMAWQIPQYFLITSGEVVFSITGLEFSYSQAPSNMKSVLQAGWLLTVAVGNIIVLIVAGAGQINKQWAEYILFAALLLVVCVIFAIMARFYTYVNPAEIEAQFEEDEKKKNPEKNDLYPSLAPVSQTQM
Protocol: (§1) rPepT1 constructs were linearised with XbaI (New England Biolabs, UK) and cRNA generated by in vitro transcription (T7 mMessage mMachine, Ambion, Cambridgeshire, UK). Xenopus laevis oocytes were obtained under MS222 anaesthesia (0.2%, w/v) in accordance with the UK Animals (Scientific Procedures) Act, 1986, and maintained at 18 °C in modified Barth's medium (88 mM NaCl, 1 mM KCl, 0.82 mM MgSO4, 2.4 mM NaHCO3, 0.42 mM CaCl2, 10 mM Hepes, 5 mM sodium pyruvate, 50 μg ml^−1 gentamicin (Fluka, Poole, UK), adjusted to pH 7.6 with 1 M NaOH). Transport measurements were performed at least 72 h after micro-injection of oocytes with 27nl cRNA (1 μg/μl), with medium changed daily.
(§2) Uptake of [^3H]-D-Phe-L-Gln (17.4 Ci/mmole, custom synthesised, Cambridge Research Biochemicals, Stockton-on-Tees, UK) was performed as previously described ([Meredith, 2004]). Briefly, 5 oocytes were incubated in 100 μl of uptake medium (95 mM NaCl, 2 mM KCl, 1 mM CaCl2, 0.42 mM MgCl2, 10 mM Tris/Hepes pH 7.4 or Tris/Mes pH 5.5) with tracer (0.4 μM) [^3H]-D-Phe-L-Gln. After incubation, the oocytes were washed sequentially five times in 1 ml of ice-cold 120 mM NaCl solution, lysed individually with 100 μl 2% (w/v) SDS and liquid scintillation counted. As a control non-injected oocytes were also incubated in uptake medium with D-Phe-L-Gln as above.
(§3) The affinity of wild-type and mutant rPepT1 transporters were assessed by competition studies with 0.4 μM [^3H]-D-Phe-L-Gln and Gly-L-Gln present in the uptake medium in concentrations from 0 to 2 mM using the protocol above, and the Ki calculated using the method of [Deves and Boyd (1989)].

[2] = target: T2, Y91R-rPepT1 (Oryctolagus cuniculus, UniProt P36836, Y91R); assay: as above; type: cell-based, rabbit; settings: pHout 7.4; against 0.4 μM [3H]-D-Phe-L-Gln uptake
T2 construct: expressed in transfected cells; host or cells: Xenopus laevis oocytes injected with cRNA
T2 sequence (P36836 1-707 Y91R): T1 sequence (P36836 1-707 Y345F) with Y91R, F345Y
Protocol: as §1, §2, §3

NCC(=O)N[C@@H](CCC(N)=O)C(=O)O [Gly-L-Gln] (H-Gly-Gln-OH) was tested. Which Ki ([1]; pHout 5.5) did it give?
The Ki was 320 ± 70 µM.

And the Ki ([1]; pHout 7.4)?
The Ki was 180 ± 50 µM.

And the Ki [2]?
Its Ki is 3 ± 1 µM.
